Here are results for 1 compound from PMC4008261, “Rewiring of regenerated axons by combining treadmill training with semaphorin3A inhibition” (Molecular Brain, 2014).

In one test the test system is SCT adult rats. The test can be described thus: Angiogenesis after SCT (RECA-1 immunostaining). The class given is in vivo, rat. Particulars: for total immunostained area of vessels with lumen diameters larger than 20 μm versus control: 3 mm and 1 mm rostral/caudal to the lesion epicenter. On the procedure:
Rats were randomly divided into the following three experimental groups: 1) untrained + placebo, 2) untrained + SM-345431 and 3) trained + SM-345431. SCT was performed, and SM-345431 or placebo was administered at the lesion site via the newly developed DDS, which is described in detail below. Starting 1 week post-injury, treadmill training commenced with a BSS. Kinematic tests were performed monthly for 3 months after SCT using a rodent robotic device (Rodent robot 3000, Robomedica Inc.) that primarily assessed the performance of plantar stepping on a treadmill. Treadmill training was continued throughout the experimental period.
A total of 53 adult female Sprague-Dawley rats (200-250 g, 10-12 weeks old) were used in this study (3 rats died during the experimental period and were excluded from the statistical analysis). All procedures were approved by the experimental animal care committee of Keio University, School of Medicine and Murayama Medical Center (approval #12-8). All rats were anesthetized with an intraperitoneal injection of ketamine (100 mg/kg)/xylazine (10 mg/kg). The spinal cord at the level of the T10 lamina was exposed by T10 laminectomy, and the dorsal dura mater was opened. The exposed spinal cord was cut along the inner edge of the vertebra with a sharp micro-scissor. Two more cuts were made at the gap of the transected spinal cord by a scalpel to ensure total transection. SM-345431 or placebo was administered to the transected site via the newly developed DDS as described in detail below (Figure 1G-I). After these procedures, the back muscles and skin were closed. Rats were kept warm in an incubator (37°C) after surgery. To prevent dehydration in the rats, 10 ml of saline was subcutaneously injected daily until day 7. Ampicillin (0.4 g/kg) was also injected intramuscularly daily to prevent infection until day 7. The bladder was evacuated manually until autonomous emptying of the bladder was achieved. […] Kinematic data were recorded using similar procedures prior to re-transection surgery (on the same day) and on the day following re-transection surgery. […]

The next test deals with T1, semaphorin3A (Homo sapiens, UniProt Q14563).
T1 sequence (Q14563 21-771): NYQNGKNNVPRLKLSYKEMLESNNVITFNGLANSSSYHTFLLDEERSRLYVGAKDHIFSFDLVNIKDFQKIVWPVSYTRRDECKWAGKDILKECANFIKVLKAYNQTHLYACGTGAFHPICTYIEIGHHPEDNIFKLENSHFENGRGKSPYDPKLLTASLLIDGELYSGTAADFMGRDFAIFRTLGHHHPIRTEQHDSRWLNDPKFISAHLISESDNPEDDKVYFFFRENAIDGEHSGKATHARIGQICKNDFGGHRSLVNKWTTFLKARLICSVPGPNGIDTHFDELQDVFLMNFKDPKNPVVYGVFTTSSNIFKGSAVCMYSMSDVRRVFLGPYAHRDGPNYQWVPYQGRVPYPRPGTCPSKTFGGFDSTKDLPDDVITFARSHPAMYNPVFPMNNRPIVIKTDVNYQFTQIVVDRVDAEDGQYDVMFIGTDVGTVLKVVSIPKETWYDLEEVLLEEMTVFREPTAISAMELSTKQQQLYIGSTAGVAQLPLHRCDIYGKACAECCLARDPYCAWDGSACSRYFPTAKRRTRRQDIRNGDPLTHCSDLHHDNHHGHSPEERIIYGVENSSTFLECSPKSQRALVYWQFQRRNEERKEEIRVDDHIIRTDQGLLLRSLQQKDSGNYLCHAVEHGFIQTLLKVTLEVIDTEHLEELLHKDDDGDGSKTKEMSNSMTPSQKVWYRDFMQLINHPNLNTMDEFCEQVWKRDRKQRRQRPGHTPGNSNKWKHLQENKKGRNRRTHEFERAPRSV
Nature of the test: Collagen co-culture assay (E8 chick DRGs and semaphorin3A-expressing COS7 cell aggregates). Particulars: chick embryonic DRG explants co-cultured with semaphorin3A-COS in collagen gel. On the set-up: expressed in transfected cells; host or cells: COS7. The class given is cell-based. On the procedure: The growth cone collapse assay and collagen co-culture experiments were performed as previously described. To examine the effects of SM-345431-silicone, small pieces (2 × 1 × 0.3 mm; approximately 1 mg containing 1 μg of SM-345431) of the SM-345431-silicone or control-silicone were placed in a collagen gel adjacent to E8 chick DRGs and COS7 cell aggregates, as shown in Figure 1C.

For the compound `CC(=O)c1cc2c(=O)c3c(C(=O)O)c(O)c(O)cc3oc2c(C(C)=O)c1-c1coc2cc(O)c(O)c(C(=O)O)c2c1=O` [SM-345431, Vinaxanthone], the “total immunostained area of vessels with lumen diameters larger than 20 μm versus control” value in the test on SCT adult rats (SM-345431 alone) and in the test with SCT adult rats (SM-345431 combined with treadmill training) was “significantly increased” in each case. Moreover, in the test with SCT adult rats (SM-345431 combined with treadmill training, 3 mm caudal to the lesion epicenter, P < 0.05), the RECA-1-positive areas result is on record as “significantly increased”. Besides, the “block of the chemo-repulsive effects of semaphorin3A on DRG neurites” value at semaphorin3A was “chemo-repulsive effects of semaphorin3A were blocked by SM-345431 in a dose-dependent manner”.
